Results on 93 compounds are retold here after PubChem BioAssay AID463074 (Broad Institute, 2010).

Activity calls are given as the source filed them.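 How the source made its calls: active means AC50 no more than tenfold above the top dose tested, or full inhibition at every dose with a flat fit (cut at about 19 µM in these data); inconclusive means flat curve fit with inhibition between 30% and 70%, or poor fit; inactive means AC50 more than tenfold above the top dose tested.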 Some results are limits rather than exact numbers.

This experiment deals with HMLE_sh_eGFP viability, CellTiter-Glo luminescence, 72 h. Briefly: cytotoxicity in HMLE control line with eGFP shRNA, dose response, counter-screen for HMLE_sh_ECad selective toxicity project, cell-based, HMLE_sh_eGFP, luminescence (AID 463074).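 Further: potency for loss of viability as luminescence drops below DMSO wells.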 A general note: The purpose of a counterscreen is to sort out artefacts and off-target activity.
For the compound `Cc1ccc(C)c(NC(=O)c2cc(-c3ccccc3)nn2-c2ccccc2)c1`, the AC50 (commonly the concentration giving half of the maximal activity seen) was 6.27 µM. To `CCCCn1c(=O)c(C(=O)NCc2ccccc2)c(O)c2ccccc21` belongs 8.36 µM. On to `COC(=O)c1cccc(Nc2cc(C)nc(-c3ccccc3O)n2)c1`, for which the half-maximal activity concentration (AC50) is 8.82 µM. To `O=C(Nc1cccc(S(=O)(=O)N2CCCCC2)c1)c1ccc([N+](=O)[O-])o1` belongs 3.83 µM; to `O=C1NN(c2cccc(Br)c2)C(=O)/C1=C\c1ccccc1`, 6.97 µM.

On to `O=C1C=C(c2ccc(Cl)c(C(F)(F)F)c2)C[C@@H](c2ccc3c(c2)OCO3)C1`, for which the concentration at half-maximal activity (AC50) was 6.37 µM. For `CC(=O)Nc1ccc(C2CC(c3ccc(Cl)cc3)=NN2c2ccccc2)cc1` (stereo not drawn), the half-maximal activity concentration (AC50) was 2.13 µM. The value for `COc1ccc(-c2sc3cc4c(cc3c2-c2ccc(OCCN3CCOCC3)cc2)OCO4)cc1` was 0.254 µM. For the compound `Cc1cc(-c2csc3nc[nH]c(=S)c23)cc(C)c1C`, the AC50 was 18.8 µM.

Consider `C/C(=N\Nc1cc(C(F)(F)F)ccc1Cl)c1ccccc1O`, for which the AC50 is 19.9 µM.

`Cc1cccc(-n2ncc(Cl)c(Cl)c2=O)c1`: the half-maximal activity concentration (AC50) is 4.52 µM.

With `Cc1ccc(N2C(=O)NC(=O)/C(=C\C=C\c3ccco3)C2=O)cc1`, the AC50 was 4.54 µM. For the compound `Cc1nc(Nc2ccc(Cl)cc2Cl)sc1C(=O)Nc1ccccc1`, the half-maximal activity concentration (AC50) is 11.5 µM. The value for `COc1ccc(-c2sc3ccccc3c2-c2ccc(OCCN3CCOCC3)cc2)cc1` was 1.51 µM; that for `CCc1cc(-c2n[nH]c(C)c2-c2ccccc2Cl)c(O)cc1OC` was 3.77 µM. As to `COc1cc(Cl)c(NC2=CC(=O)C(=O)c3ccccc32)c(OC)c1`, the AC50 is 3.57 µM. For the compound `CCc1ccc2c(c1)C1(C(=O)N2)N2CCCC2C(C(=O)c2ccc3ccccc3c2)C12C(=O)Nc1ccccc12` (stereo not drawn), the AC50 is 3.69 µM. The value for `Cc1ccc(CN2CCSc3ccc(C(=O)NCc4ccco4)cc32)cc1` was > 19.5 µM (inactive); that for `CC(=O)Nc1ccc(NC(=O)CSc2ncc(C(=O)Nc3ccccc3)c(=O)n2C)cc1` was 5.44 µM. The value for `Cc1nn2c(COc3ccc(NC(=O)c4ccccc4Cl)cc3)nnc2c2ccccc12` was 3.08 µM. As to `c1ccc(-c2cc(-c3ccncc3)nc3ccc4ccccc4c23)cc1`, the AC50 was 3.61 µM. To `O=C(N/N=C/c1cccc(O)c1)c1ccc(COc2ccccc2Br)cc1` belongs 6.42 µM. To `C=CCC[C@H](Cc1ccc(F)cc1)C(=O)OC[C@@H](Cc1c[nH]c2ccccc12)NC(=O)[C@H](CC=C)CC(=O)N(CCO)Cc1ccccc1` belongs 4.1 µM; to `Cc1ccc(C(=O)N2N=C(c3ccc(Br)cc3)CC2c2ccccc2O)cc1` (stereo not drawn), 3.54 µM. Turning to `COc1ccc(C(=O)NCC2(c3ccccc3)CCCC2)c(OC)c1`, the AC50 was 9.54 µM. `COc1cc(OC)cc(-c2sc3ccc(OC)cc3c2C#CCO)c1`: the AC50 was 6.89 µM. The value for `CCn1c2ccccc2c2cc(NS(=O)(=O)c3ccc(C)cc3)ccc21` was 4.53 µM; that for `CC(C)Oc1cccc(C(=O)NC(=S)Nc2ccccc2N2CCOCC2)c1` was 13.9 µM. On to `Nc1ncnc2c1c(-c1ccc(Oc3ccccc3)cc1)cn2C1CCCC1`, for which the AC50 is 1.7 µM. The value for `O=C(Oc1ccc(-c2nc(-c3ccccn3)no2)cc1)c1ccccc1` was 1.63 µM; that for `Cn1nnnc1Sc1ncnc2scc(-c3ccc(Cl)cc3)c12` was 3.3 µM; that for `Oc1ccccc1/C=N/Nc1nccnc1Cl` was 5.91 µM. On to `Cc1ccc(S[C@@H](CCN2CC[C@H](C(C)(C)C)CCC2=O)c2ccccc2)cc1`, for which the concentration at half-maximal activity (AC50) was 3.57 µM.

Regarding `O=C1C=C(c2ccc(Cl)c(C(F)(F)F)c2)C[C@@H](c2ccc(Cl)cc2)C1`, the half-maximal activity concentration (AC50) was 3.52 µM. To `CCCCc1oc2ccccc2c1C(=O)c1cc(I)c(OCCN(CC)CC)c(I)c1` belongs 6.92 µM; to `Nc1nnc(SCC(=O)OCC(=O)NC2CCCCC2)s1`, > 19.5 µM (inactive). Take `COc1ccccc1-c1sc2cc3c(cc2c1C#Cc1cncn1C)OCO3`: the AC50 is 5.73 µM. The value for `COC(=O)Nc1ccc(S(=O)(=O)N2CCCc3ccccc32)cc1` was 2.21 µM; that for `C=C(C(=O)c1ccccc1)C(C)C(=C)C(=O)c1ccccc1` was 1.85 µM.

Take `FC(F)(F)c1ccc(-c2noc(CN3CCCN(C4CCCCC4)CC3)n2)cc1`: the half-maximal activity concentration (AC50) was 7.39 µM. On to `CCCc1cc(=O)[nH]c(SCC(=O)Nc2sc(C(N)=O)c(C)c2C(=O)OCCOC)n1`, for which the AC50 is 4.25 µM. As for `Cc1ccc(/C=C/C(=O)c2cc(Br)ccc2OC(=O)c2ccco2)cc1`, the AC50 was 5.92 µM. To `COc1cccc(-c2sc3ccc(OC)cc3c2C#CC2(O)CCCCC2)c1` belongs 7.25 µM; to `CS(=O)(=O)c1ncc(Cl)c(C(=O)Nc2ccc(N3CCOCC3)cc2)n1`, 6.81 µM; to `O=C(CSC1=NNC(c2ccccn2)S1)Nc1ccc(C(F)(F)F)cc1` (stereo not drawn), 4.27 µM. The value for `CC(=O)Oc1ccc(-c2csc(Nc3ccc(Cl)cn3)n2)cc1` was 4.6 µM. The value for `CN1CCN(C2=Cc3ccc(Cl)cc3Sc3ccc(F)cc32)CC1` was 6.74 µM. As for `Cc1ccc(-c2nnc(N3CCC(C)CC3)c3ccccc23)cc1C`, the AC50 is 4.3 µM. The value for `O=C1c2ccccc2NC(c2ccc(-c3ccc(Br)cc3)o2)N1O` (stereo not drawn) was 5.06 µM; that for `Cc1ccc(NC(=O)NCC2CCN(Cc3cccc(Cl)c3)CC2)cc1Cl` was 6.9 µM. To `COc1cc2nc(CN3CC=C(c4ccccc4)CC3)[nH]c(=O)c2cc1OC` belongs 3.39 µM; to `COC(=O)c1c(NC(=O)Cc2cccs2)sc2c1CCC(C)C2` (stereo not drawn), 9.75 µM. Consider `CCOc1ccc(/C=N/NC(=O)COc2ccccc2-c2ccccc2)cc1`, for which the AC50 was 6.53 µM. Regarding `COC(=O)c1ccc(CN(c2ccc(C(=O)O)c(O)c2)S(=O)(=O)c2ccc(Cl)c([N+](=O)[O-])c2)cc1`, the half-maximal activity concentration (AC50) was 3.5 µM.

For `COc1cc(C[C@H](C)[C@H](C)Cc2ccc3c(c2)OCO3)ccc1O`, the half-maximal activity concentration (AC50) was 6.66 µM. To `O=C(NC(=S)Nc1cccc(Cl)c1N1CCCCC1)c1ccco1` belongs 3.81 µM; to `Cc1ccc(NC(=O)c2nc[nH]c2C(=O)NCCCNC(=O)c2[nH]cnc2C(=O)Nc2ccc(C)cc2)cc1`, 3.86 µM. To `COc1cc(/C=N/O)cc(Br)c1OCc1cccc(Cl)c1` belongs 6.68 µM; to `COc1ccc(Cc2nnc(N/N=C/c3ccccc3O)[nH]c2=O)cc1OC`, 3.4 µM; to `O=C(Nc1ccc(Oc2c(F)c(F)c(F)c(F)c2F)cc1)OC1CCN2Cc3ccccc3N=C12` (stereo not drawn), 1.21 µM.

For the compound `COc1cc(CNCCc2c[nH]c3ccccc23)ccc1OCc1ccc(F)cc1`, the concentration at half-maximal activity (AC50) is 4.2 µM.

Turning to `Cc1ccc(C(C)C)c(OCc2ccc(C(=O)N/N=C/c3ccc(O)c(O)c3)cc2)c1`, the half-maximal activity concentration (AC50) was 4.66 µM. The value for `O=C(Nc1cccc(NC(=O)c2ccc([N+](=O)[O-])o2)c1)c1ccco1` was 7.23 µM; that for `C=C(CC[C@@H](O)C(C)(C)O)[C@H]1CC[C@]2(C)[C@@H]1CCC1[C@@]3(C)CC[C@H](O)C(C)(C)C3CC[C@]12C` (stereo partly drawn) was 1.13 µM. Regarding `CCCCNc1nc(Nc2ccc(C)c(Cl)c2)c2cnn(C)c2n1`, the concentration at half-maximal activity (AC50) was 11.5 µM.

As for `Cc1ccc(-c2cc(C(=O)N3CCN(c4ccc(O)cc4)CC3)c3ccccc3n2)cc1`, the half-maximal activity concentration (AC50) is 8.38 µM. The value for `OCCN1CCN(CCCN2c3ccccc3Sc3ccc(C(F)(F)F)cc32)CC1` was 4.67 µM; that for `COc1cc(CNC(C)(C)CO)cc(Br)c1OCc1ccc(Cl)cc1Cl` was 6.07 µM. The value for `CCCCCc1cc(=O)oc2c(C(CCN3CCCC(C)C3)c3ccc(N(C)C)cc3)c(OC)cc(OC)c12` (stereo not drawn) was 6.69 µM; that for `Cc1ccc(S(=O)(=O)Nc2ccc(NC(=O)Nc3cccc(C(F)(F)F)c3)cc2)cc1` was 2.51 µM.

`COc1ccc(-c2cc(C(=O)N3CC4(C)CC3CC(C)(C)C4)no2)cc1OC` (stereo not drawn): the half-maximal activity concentration (AC50) is 10.6 µM. On to `CCOC(=O)c1cccc(C2=CC(=O)C[C@H](c3ccc(Cl)cc3)C2)c1`, for which the concentration at half-maximal activity (AC50) was 2.82 µM. To `O=C(Nc1cccc(Cl)c1N1CCCCC1)c1ccc2c(c1)OCCO2` belongs 11.4 µM; to `c1cc(SC2CCCCC2)cc(-c2nc3cnccn3c2NC2CCCCC2)c1`, 1.78 µM; to `C=C(C)COc1ccc(-c2[nH]ncc2-c2ccc(OC)cc2)c(O)c1`, 8.86 µM. To `Cc1ccc2nc(-c3cccc(NS(C)(=O)=O)c3)cc(-c3ccccc3)c2c1` belongs 5.53 µM; to `Cc1ccc(S(=O)(=O)Nc2ccc(C(OC(=O)c3ccccc3[N+](=O)[O-])(C(F)(F)F)C(F)(F)F)cc2)cc1`, 7.19 µM. As to `COc1cccc(-c2ccc(C#N)c(OC(=O)c3c(Cl)cccc3Cl)n2)c1`, the concentration at half-maximal activity (AC50) is 4.45 µM.

Regarding `c1ccc(CNc2nc(N3CCN(Cc4ccccc4)CC3)nc3ccccc23)cc1`, the AC50 was 3.91 µM. To `COc1ccc(C2NCCc3c2[nH]c2ccccc32)cc1COc1ccc(F)cc1` (stereo not drawn) belongs 7.34 µM. For the compound `O=C(Nc1ncc(Cc2cccc([N+](=O)[O-])c2)s1)c1ccco1`, the AC50 was 1.44 µM. The value for `NS(=O)(=O)c1ccc(N/N=C/c2cn(-c3ccccc3)nc2-c2cccs2)c([N+](=O)[O-])c1` was 1.9 µM; that for `CCCOc1c(Cl)cc(C(=O)Nc2ccc3c(c2)OCO3)cc1OCC` was 5.39 µM. The value for `O=C(NCC(c1cccs1)N1CCOCC1)c1ccc(Cl)s1` (stereo not drawn) was 1.76 µM; that for `O=C(COc1cccc(C(F)(F)F)c1)N1CCN(c2ccc(O)cc2)CC1` was 4.98 µM. With `Oc1cccc(-c2nc3c4c(ncn3n2)-c2ccccc2CC42CCCC2)c1`, the half-maximal activity concentration (AC50) is 1.5 µM.

On to `O=C(COc1ccccc1-c1ccccc1)N/N=C/c1cccc2ccccc12`, for which the half-maximal activity concentration (AC50) is 0.608 µM. As for `CCCCNc1c(-c2ccc(OC)c(SC(C)CC)c2)nc2ccc(C)cn12` (stereo not drawn), the AC50 was 6.78 µM. `Cc1nn(Cc2ccc(Cl)c(Cl)c2)c(C)c1NC(=O)c1cc(-c2ccc3c(c2)OCO3)on1`: the concentration at half-maximal activity (AC50) is 1.56 µM. To `O=C(Nc1ccc(Nc2ccccc2)cc1)c1cc([N+](=O)[O-])ccc1Cl` belongs 10.6 µM; to `Cc1ccc(/C=C/C(=O)NCC2COc3ccccc3O2)o1` (stereo not drawn), > 19.5 µM (inactive). Consider `COc1cc(/C=C2\C(=O)ON=C2c2ccc(Cl)cc2)ccc1O`, for which the concentration at half-maximal activity (AC50) is 1.55 µM.

Take `Cc1ccc(COc2ccccc2-c2cc(C(=O)N/N=C/c3cccnc3)[nH]n2)cc1`: the AC50 was 12.6 µM.
